Assay results reported in PubChem BioAssay (NCI).
Values joined by “and” are separate entries in the source; they are usually repeats but may differ in a detail not shown here. Equal values may be shown once.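 Cultured in 96-well plates, cells were exposed to test compound for 48 hours across five concentrations. Here, GI50 denotes the concentration required for 50% inhibition of growth. TGI marks complete inhibition of growth.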

Legend:
Experiment in all cases: growth of human tumour cells (NCI), 48 h
SK-MEL-5 melanoma = test system: SK-MEL-5 melanoma
NCI/ADR-RES ovarian = test system: NCI/ADR-RES ovarian
U251 CNS = test system: U251 CNS
SNB-75 CNS = test system: SNB-75 CNS
NCI-H460 lung = test system: NCI-H460 lung
SK-MEL-28 melanoma = test system: SK-MEL-28 melanoma
NCI-H522 lung = test system: NCI-H522 lung
A498 renal = test system: A498 renal

Row | Structure (SMILES) | GI50 (SK-MEL-5 melanoma) | TGI (SK-MEL-5 melanoma) | GI50 (NCI/ADR-RES ovarian) | TGI (NCI/ADR-RES ovarian) | GI50 (U251 CNS) | TGI (U251 CNS) | GI50 (SNB-75 CNS) | TGI (SNB-75 CNS) | GI50 (NCI-H460 lung) | TGI (NCI-H460 lung) | GI50 (SK-MEL-28 melanoma) | TGI (SK-MEL-28 melanoma) | GI50 (NCI-H522 lung) | TGI (NCI-H522 lung) | GI50 (A498 renal) | TGI (A498 renal)
1 | CN(NC(=O)CC(=O)NN(C)C(=S)c1ccccc1)C(=S)c1ccccc1 | 49.1 µM | > 100 µM | 55.3 µM | > 100 µM | 49.8 µM | > 100 µM | > 54.6 µM | > 100 µM | 0.0843 µM | > 100 µM | > 72.8 µM | > 100 µM | 69.9 µM | > 100 µM |  | 
2 | Cc1cc(C)c(O)c(CNCCCCCCNCc2cc(C)cc(C)c2O)c1 | 1.61 µM | 3.09 µM | 1.85 µM | 3.86 µM | 1.58 µM | 3.07 µM | 1.33 µM | 2.63 µM | 1.89 µM | 3.58 µM | 1.66 µM | 3.28 µM | 1.78 µM | 3.67 µM | 1.32 µM | 3.15 µM
3 | CC1(C)NCCC[C@]2(C)[C@H]3C=CC4=C5C[C@](C)(CO)CC[C@]5(C)CC[C@@]4(C)[C@]3(C)CC[C@@H]12 | 2.14 µM | 4.94 µM | 2.02 µM | 4.52 µM | 4.17 µM | 15.9 µM | 3.43 µM | 14.8 µM | 4.17 µM | 15.2 µM | 5.87 µM | 18.4 µM | 2.38 µM | 7.31 µM | 11.4 µM | 24.5 µM
4 | C=C1C[C@@H]2C/C=C/C(=O)C/C(C)=C\C=C\C(=O)O[C@H](C=O)C/C(C)=C/[C@H](C1)O2 | 2.62 µM | 16.6 µM | 2.58 µM | > 100 µM | 0.711 µM | 14.1 µM | 0.294 µM | 1.96 µM | 3.07 µM | 16.7 µM | 2.91 µM | 20.5 µM | 4.48 µM | 19.5 µM | > 28.5 µM | > 55.6 µM
5 | c1ccc(C(=NNc2nc3ccccc3o2)c2ccccn2)nc1 | 0.163 µM | 1.18 µM and 0.491 µM | 0.0386 µM |  | 0.0649 µM | 20.1 µM and 16.1 µM | 0.397 µM | 24.1 µM | 0.0575 µM and 0.163 µM | 5.22 µM and 1.5 µM | 0.124 µM | 48.6 µM | 0.0339 µM |  | 0.117 µM | 0.834 µM and 6.5 µM
6 | Nc1nc(Nc2ccc3c(c2)CC[C@@H](N2CCCC2)CC3)nn1-c1cc2c(nn1)-c1ccccc1CCC2 | 1.72 µM | 3.11 µM |  |  |  |  | 1.22 µM | 2.48 µM | 1.31 µM | 2.82 µM | 1.77 µM | 3.27 µM | 1.75 µM | 3.79 µM | 0.0249 µM | 1.44 µM
7 | CC1(C)COCN1COC1CCCCC1 |  | > 100 µM |  | > 100 µM |  | > 100 µM |  | > 100 µM |  | > 100 µM |  | > 100 µM |  | > 100 µM |  | > 100 µM
8 | Cc1ncc([N+](=O)[O-])n1CCNS(=O)(=O)CCCn1ccnc1[N+](=O)[O-] |  | > 100 µM |  | > 100 µM |  | > 100 µM |  | > 100 µM |  | > 100 µM |  | > 100 µM |  | > 100 µM |  | > 100 µM
9 | Nc1ccccc1/C=C\c1ccccc1 |  | > 100 µM |  | > 100 µM |  | > 100 µM |  | > 100 µM |  | > 100 µM |  | > 100 µM |  |  |  | 
10 | O=C1C(Cl)=C(Oc2ccc([N+](=O)[O-])cc2)C(=O)c2c(O)ccc(O)c21 |  | > 100 µM |  | > 100 µM |  | > 100 µM |  | > 100 µM |  | > 100 µM |  | > 76.2 µM |  | 40.2 µM |  | > 100 µM
11 | CN(C)CCCN=C(N)N |  | > 100 µM |  | > 100 µM |  | > 100 µM |  | > 100 µM |  | > 100 µM |  | > 100 µM |  | > 100 µM |  | > 100 µM
12 | O=C1CCCCCCCC/C=C/CCC(c2ccco2)O1 (stereo not drawn) | 44 µM | > 100 µM | > 100 µM | > 100 µM | 31.4 µM | > 100 µM | 23.7 µM | 92 µM | > 100 µM | > 100 µM | 73.3 µM | > 100 µM | 37.7 µM | > 100 µM |  | 
13 | Cc1ccccc1CN1CC2=C(CCN(Cc3ccccc3)C2=O)N2CCN=C12 |  | > 64.7 µM |  | > 100 µM |  | > 100 µM |  | > 100 µM |  | > 100 µM |  | > 100 µM |  | > 100 µM |  | > 100 µM
14 | O=C(NC1CC1)c1ccc(-c2nc3ccc4[nH]ncc4c3c3c2CCCC3)cc1 | 2.67 µM | 9.83 µM | 6.56 µM | > 50 µM | 2.19 µM | 13.7 µM | 1.54 µM | 4.87 µM | 2.05 µM | 12.2 µM | 2.3 µM | 12.1 µM | 1.21 µM | 9.54 µM | 1.03 µM | 5.01 µM
15 | COc1ccc(C2=NN(C(=O)COc3ccc(Cl)cc3)C(O)(c3cc(F)c(Cl)cc3Cl)C2)cc1OC (stereo not drawn) | 8.29 µM | 20.9 µM | 2.94 µM | 8.73 µM | 5.69 µM | 16.6 µM | 2.69 µM | 7.3 µM | 8.87 µM | 24.3 µM | 1.85 µM | 3.5 µM |  | 2.37 µM | 13.1 µM | 26.2 µM
16 | O=C1/C(=C/c2ccc(O)c([N+](=O)[O-])c2)CCC/C1=C\c1ccc(O)c([N+](=O)[O-])c1 | 14.7 µM | 17.4 µM and 31.5 µM | 16.3 µM | 50 µM and 41.7 µM | 14 µM | 18.3 µM and 26.9 µM |  | 6.65 µM |  | 31.6 µM | 19.9 µM | 20.3 µM and 45 µM | 1.49 µM | 22.6 µM and 3.08 µM |  | 13.1 µM
17 | c1cc2c(cc1C(N1CCNCC1)N1CCNCC1)OCO2 |  | > 100 µM |  | > 100 µM |  | > 100 µM |  | > 100 µM |  | > 100 µM |  | > 100 µM |  | > 100 µM |  | > 100 µM
18 | FC(F)(F)c1cccc(COCCN2CCN(Cc3cccc(C(F)(F)F)c3)CC2)c1 |  | 29.4 µM |  | 39.1 µM |  | 34.5 µM |  | 26.3 µM |  | 34.7 µM |  | 34.6 µM |  | 26.5 µM |  | 28.8 µM
